For this test, the target named is T1, Beta-Amyloid (1-42), human (Homo sapiens, UniProt P05067).
T1 construct: Component B: Beta-Amyloid (1-42), human, 0.25 mg×2, lyophilized;; purchased AnaSpec AS-72214
T1 sequence (P05067 672-713 limits assumed): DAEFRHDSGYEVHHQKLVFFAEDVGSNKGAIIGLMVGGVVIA
Briefly: Thioflavin T (ThT) Beta-Amyloid (1-42) Aggregation Assay. It counts as biochemical. To be noted: 8 μM Beta-Amyloid (1-42), 50 μM ThT dye, 37° C., slope of fluorescence time course; read-out: IC50 for inhibiting amyloids. The protocol:
This assay is used to evaluate the disclosed compounds' activities for inhibiting amyloids.
Thioflavin T (ThT) Beta-Amyloid (1-42) Aggregation Assay Protocol
SensoLyte Thioflavin T Beta-Amyloid (1-42) Aggregation Kit was used (AnaSpec Cat #AS-72214), which includes the following components:
Component A: Assay Buffer (Buffer components are not disclosed);
Component B: Beta-Amyloid (1-42), human, 0.25 mg×2, lyophilized;
Component C: 20 mM ThT solution; and
Component D: 20 mM Phenol Red (Control Inhibitor).
The following buffer was used: 0.005% Tween 20, Assay Buffer from Kit (Component A), and 1% DMSO (final including carryover from compounds).
The final reaction conditions include 8 μM Beta-Amyloid (1-42) and 50 μM ThT dye.
Corning cat #3573, Non-Treated, Black 384-well plate was used as assay plate.
Morin (Sigma Cat #: M4008-2G) was used as control inhibitor.
The reaction procedure is as follows: • 1. Prepare 2×ThT solution in Reaction Buffer; keep in the dark; • 2. Deliver 10 μl/well of 2×ThT solution into the wells; • 3. Prepare 2× Beta-Amyloid solution in Reaction Buffer in polypropylene tube, sonicate for 5 min; keep on ice until use; • 4. Deliver compounds in DMSO into the ThT solution by Acoustic technology (Echo550; nanoliter range), no pre-incubation; • 5. Immediately after compound addition, deliver 10 μL/well of Beta-Amyloid solution into the reaction well, buffer into “No peptide” wells instead; • 6. Immediately start measuring fluorescence intensity in EnVision, set at 37° C., (Ex/Em=450/485 nm) as a time-course measurement every 5 min (30 sec shaking between each read) for 3 hours; • 7. Analyze data by taking slope (signal/time) of linear portion (typically 5 to 45 min) of measurement (therefore time period taken for slope for analysis is different for each target); and • 8. Slope is calculated by using Excel, and curve fits are performed using Prism software.
Consider `Clc1ccc2nc(SCc3cn4cc(Cl)ccc4n3)[nH]c2c1` [Compound 1, 6-chloro-2-[([6-chloroimidazo[1,2-a]pyridin-2-yl]methyl)sulfanyl]-1H-1,3-benzodiazole], for which the 50% inhibitory concentration (IC50) is under 100 µM.

In the case of `O=[N+]([O-])c1ccc2nc(SCc3nc4ccc(Cl)cn4c3Br)[nH]c2c1` [Compound 2, 2-[([3-bromo-6-chloroimidazo[1,2-a]pyridin-2-yl]methyl)sulfanyl]-6-nitro-1H-1,3-benzodiazole], the IC50 is under 200 µM.

`Cn1c(CSc2nc3ncccn3n2)nc2cc(Cl)ccc21` [Compound 3, 5-chloro-1-methyl-2-([[1,2,4]triazolo[1,5-a]pyrimidin-2-ylsulfanyl]methyl)-1,3-benzodiazole]: the IC50 was under 200 µM.

As to `CCn1c(SCc2cn3cc(C)ccc3n2)nc2ccccc21` [Compound 4, 1-ethyl-2-[([6-methylimidazo[1,2-a]pyridin-2-yl]methyl)sulfanyl]-1,3-benzodiazole], the IC50 is under 100 µM. To `Cc1ccc2nc(CSc3nc4ccc(Cl)cc4[nH]3)cn2c1` [Compound 5] belongs under 200 µM.

The IC50 is the concentration that gives 50% inhibition.

The values above are taken from US20220144840A1, “HETEROCYCLIC COMPOUNDS AND THEIR USE IN THE TREATMENT OF AMYLOID-RELATED DISEASES” (D.E. Shaw Research, LLC, priority 2019, published 2022).
